Experimental data taken from PMC9267128, “New 2-[(4-Amino-6-N-substituted-1,3,5-triazin-2-yl)methylthio]-N-(imidazolidin-2-ylidene)-4-chloro-5-methylbenzenesulfonamide Derivatives, Design, Synthesis and Anticancer Evaluation” (International Journal of Molecular Sciences, 2022).

Legend:
MCF-7 (breast cancer) = experiment: MTT cell viability assay, MCF-7; assay type: cell-based, human; details: for IC50: Homo sapiens, MCF7, 72 h, MTT assay, 72 h of incubation; for Selectivity Index (SI) MCF-7: IC50 value toward HaCaT cells/IC50 value toward MCF-7
How it was run: (§1)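 Cells in DMEM with 10% FBS, 3 × 10^3 per well, exposed to compounds at 1–100 µM for 72 h at 37 °C. MTT at 0.5 mg/mL for 2 h, formazan dissolved in DMSO and read at 550 nm. Mean ± SD of at least three independent experiments, each in triplicate.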

HeLa (cervical cancer) = experiment: MTT cell viability assay, HeLa; assay type: cell-based, human; details: for IC50: Homo sapiens, HeLa, MTT assay, 72 h of incubation; for Selectivity Index (SI) HeLa: IC50 value toward HaCaT cells/IC50 value toward HeLa
How it was run: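 HCT-116 and HeLa cells in DMEM/10% FBS exposed 72 h to compounds over 1–100 µM. Viability by MTT (0.5 mg/mL, 2 h, 37 °C), formazan dissolved in DMSO and read at 550 nm; mean ± SD of at least three independent experiments.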

MDM2-p53 interactions = experiment: Western blot of MDM2 and p53 protein levels in MCF-7 cells; assay type: cell-based, human; details: 4 µM and 10 µM, 24-h incubation
Experimental: Thus, the effects of the examined compounds on the inhibition of MDM2-p53 interactions were examined. MDM2 and p53 protein levels were determined with Western blot analysis after the treatment of MCF-7 cells with compounds selected for their high selectivity index (48, 62, 134, 138, and 140). Compounds were examined at different concentrations (4 µM and 10 µM) following a 24-h incubation (Figure 7).
Proteins were transferred to an Immobilon-P PVDF membrane (Merck Millipore, Burlington, MA, USA). The membranes were incubated for 1 h using 5% low-fat milk solution in 1× TBS (50 mM Tris-Cl, pH 7.5, 150 mM NaCl) as a blocking buffer and then overnight at 4 °C in the same blocking solution containing one of the following antibodies: anti-MDM2 (rabbit, Sigma-Aldrich AB-166, Burlington, MA, USA), anti-p53 (rabbit, Sigma-Aldrich S15) or α-tubulin (rabbit, 11H10, Cell Signaling, Danvers, MA, USA). After washing (3 × 10 min in TBS), membranes were incubated for 2 h in room temperature with the adequate HRP-conjugated secondary antibody: goat anti-rabbit IgG (1:5000, Abcam, Cambridge, UK; cat. 97051). Membranes were developed using an HRP detection kit WesternBright Quantum (Advansta, San Jose, CA, USA; cat. K-12042).

[1] = tested on: MCF7 (breast cancer cell line, ATCC, HTB-22); experiment: MTT assay, wild-type p53 breast cancer cells MCF-7 (Table 11); assay type: cell-based, human; details: Homo sapiens, MCF7; 72 h of incubation, wild-type p53, second determination
Experimental: Thus, the ability of the selected compounds to exert cytotoxic activity toward cell lines harboring mutant p53 was examined. Compounds displaying a high selectivity index (Table 6) were selected for the analysis of their activity toward ovarian and breast cancer cells with wild-type p53 (A2780, MCF-7) and mutant p53 (SKOV-3, T47D).
Cell viability was examined using the MTT [3-(4,5-dimethylthiazol-2-yl)-2,5-diphenyltetrazolium bromide] assay. Cells were seeded in 96-well plates at a density of 3 × 10^3 cells/well and treated for 72 h with the tested compounds in the concentration range of 1–100 µM. Then, MTT (0.5 mg/mL) was added to the medium and cells were further incubated for 2 h at 37 °C. In the next stage, cells were lysed with DMSO and the absorbance of the formazan solution was measured at 550 nm with a plate reader (1420 multilabel counter, Victor, Jügesheim, Germany). The experiment was performed in triplicate. Values are expressed as the mean ± SD of at least three independent experiments. Cisplatin was used as a positive control.
Compounds 48, 62, 134, 138 and 140 were further examined toward MCF7 (breast cancer cell line, ATCC, HTB-22), T47D (breast cancer cell line, DSMZ ACC 739), A2780 (ovarian carcinoma cell line, ECACC, 93112519), and SKOV3 (ovarian carcinoma cell line, ATCC, HTB-77) cells. Cells were grown in Dulbecco’s Modified Eagle Medium (DMEM) supplemented with 10% fetal bovine serum (Thermo Fisher Scientific).

[2] = tested on: HaCaT (human keratinocyte cell line); experiment: MTT cell viability assay, non-cancerous HaCaT; assay type: cell-based; details: Homo sapiens, HaCaT, 72 h, 72 h of incubation, non-cancerous keratinocytes
How it was run: as §1

MCF-7 cells = experiment: Apoptosis analysis (Annexin V-PE/7-AAD flow cytometry) in MCF-7 cells; assay type: cell-based, human; details: MCF-7, 5, 10 and 25 µM, 72 h
Experimental: To confirm this, MCF-7 cells were treated with a concentration range of compounds 140 and 48 for 72 h. Flow cytometric analysis was performed with Annexin V-PE staining. […] The increase in apoptotic cells was mainly evident in the late apoptotic stage (upper right quadrant) (Figure 9).
Levels of apoptosis were measured by flow cytometry using the Annexin V-PE Apoptosis Detection Kit I (BD Biosciences, Belgium) according to the manufacturer’s instructions. Apoptosis was assessed after a 72 h treatment of MCF7 and T47D cells with compounds 48 and 140 in the concentrations of 5, 10 and 25 µM. Proceeding cell treatment, cells were collected, washed with PBS and stained with Annexin V-phycoerythrin (PE) and 7-amino-actinomycin (7-AAD) in Annexin V binding buffer for 15 min at RT in the dark. After staining, cells were diluted in Annexin V binding buffer and analyzed on a BD FACSCalibur flow cytometer (BD Biosciences). At total of 10^4 cells were analyzed from each sample and data were analyzed with Flowing software (version 2.5).

How did the IC50 (MCF-7 (breast cancer)) turn out when `Cc1cc(S(=O)(=O)N=C2NCCN2Cc2ccccc2)c(SCc2nc(N)nc(N3CCc4ccccc43)n2)cc1Cl` [Compound 48] was run?
The IC50 was 7 ± 0.2 µM.

And the “Selectivity Index (SI) MCF-7” value (MCF-7 (breast cancer))?
The value was 4.7.

What about the IC50 (HeLa (cervical cancer)) of the same compound?
Its IC50 is 25 ± 0.3 µM.

What about the “Selectivity Index (SI) HeLa” value (HeLa (cervical cancer)) of the same compound?
Its value is 1.3.

And the “MDM2 and p53 protein levels” value (MDM2-p53 interactions)?
The value was “no changes”.

And the IC50 [1]?
Its IC50 is 7.8 ± 0.1 µM.

And the IC50 [2]?
The IC50 was 33 ± 1 µM.

What about the “apoptotic population of cells (Annexin V-PE)” value (MCF-7 cells) of the same compound?
The value was “concentration-dependent increase”.

How did the IC50 (MCF-7 (breast cancer)) turn out when `Cc1cc(S(=O)(=O)N=C2NCCN2Cc2ccc(C(F)(F)F)cc2)c(SCc2nc(N)nc(N3CCN(Cc4ccccc4)CC3)n2)cc1Cl` [Compound 140] was run?
The IC50 was 10 ± 0.2 µM.

What about the “Selectivity Index (SI) MCF-7” value (MCF-7 (breast cancer)) of the same compound?
The value was 2.2.

And the IC50 (HeLa (cervical cancer))?
Its IC50 is 8 ± 0.5 µM.

And the “Selectivity Index (SI) HeLa” value (HeLa (cervical cancer))?
Its value is 2.7.

And the “MDM2 and p53 protein levels” value (MDM2-p53 interactions)?
The value was “no changes”.

And the IC50 [1]?
Its IC50 is 6.9 ± 0.1 µM.

And the IC50 [2]?
The IC50 was 22 ± 1 µM.

What about the “apoptotic population of cells (Annexin V-PE)” value (MCF-7 cells) of the same compound?
The value was “concentration-dependent increase”.
